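Five concentrations, 48 hours, 96-well plates. At the GI50, growth is halved. TGI is the concentration that stops growth completely.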
Key:
Assay in all cases: NCI-60 cell line screen, 48 h
OVCAR-5 ovarian = test system: OVCAR-5 ovarian
SN12C renal = test system: SN12C renal
SK-MEL-2 melanoma = test system: SK-MEL-2 melanoma
EKVX NSCLC = test system: EKVX NSCLC
TK-10 renal = test system: TK-10 renal
MDA-MB-231 breast = test system: MDA-MB-231 breast
OVCAR-3 ovarian = test system: OVCAR-3 ovarian
MOLT-4 leukemia = test system: MOLT-4 leukemia
DMS 273 small cell lung = test system: DMS 273 small cell lung
DLD-1 colon = test system: DLD-1 colon

SMILES	GI50 (OVCAR-5 ovarian) [µM]	TGI (OVCAR-5 ovarian) [µM]	GI50 (SN12C renal) [µM]	TGI (SN12C renal) [µM]	GI50 (SK-MEL-2 melanoma) [µM]	TGI (SK-MEL-2 melanoma) [µM]	GI50 (EKVX NSCLC) [µM]	TGI (EKVX NSCLC) [µM]	GI50 (TK-10 renal) [µM]	TGI (TK-10 renal) [µM]	GI50 (MDA-MB-231 breast) [µM]	TGI (MDA-MB-231 breast) [µM]	GI50 (OVCAR-3 ovarian) [µM]	TGI (OVCAR-3 ovarian) [µM]	GI50 (MOLT-4 leukemia) [µM]	TGI (MOLT-4 leukemia) [µM]	TGI (DMS 273 small cell lung) [µM]	GI50 (DLD-1 colon) [µM]	TGI (DLD-1 colon) [µM]
CCCCCCCCCCCCCCCC(=O)OCC1OC(n2cnc3c(=S)nc(N)[nH]c32)C(OC(=O)CCCCCCCCCCCCCCC)C1OC(=O)CCCCCCCCCCCCCCC (configuration not stated)	3.4	> 39.3	18.3	> 50	4.39	28.4	6.15	> 50	1.99	> 50	2.66	> 22.1	6.16	> 47.3	2.95	> 50	–	–	–
CC/C=C\C/C=C\C[C@H](O)C/C=C1/C(=O)C=C[C@H]1C/C=C\CCC(=O)OC	5	> 8.25	2.62	> 8.25	> 8.25	> 8.25	> 8.25	> 8.25	> 8.25	> 8.25	3.5	> 8.25	2.08	7.71	2.93	> 8.25	–	–	–
O=C(Cn1c(=O)c(-c2ccccc2)nc2ccccc21)c1cccnc1	> 100	> 100	> 100	> 100	> 100	> 100	> 100	> 100	> 100	> 100	> 100	> 100	> 100	> 100	> 100	> 100	–	–	–
O=Nc1c(-c2cccc([N+](=O)[O-])c2)nc2cnccn12	–	44	–	59.7	–	68.1	–	> 100	–	26.3	–	26.7	–	37.4	–	27.6	–	–	–
O=C1c2ccccc2-c2nccc3cc(Cl)nc1c23	> 72.5	> 100	2.25	> 100	2.83	7.28	48.9	> 100	4.33	> 100	4.62	> 73.4	0.631	1.79	2.21	> 26.8	–	–	–
CCON=C1C(C)(C)C(C)(C)C(C)(C)C1(C)C	–	> 100	–	> 100	–	> 100	–	> 100	–	> 100	–	> 100	–	> 100	–	> 100	–	–	–
CCCCCCCCCCCCCC[P+](CCCCCC)(CCCCCC)CCCCCC	0.267	–	0.041	1.17	0.0266	> 100	0.0632	0.917	0.198	1.92	0.0596	1.49	0.0345	0.295	0.0689	0.952	–	–	–
COc1cc(C(=O)/C=C/c2c(-c3ccc(F)cc3)nc3sc(C)cn23)cc(OC)c1OC	> 100	> 100	9.01	> 100	5.75	> 100	2.29	> 100	28	> 100	5.38	> 100	3.66	> 100	1.62	5.13	–	–	–
O=c1[nH]c(-c2ccccc2)nc2ccc(Cl)cc12	–	> 100	–	> 100	–	> 100	–	> 100	–	> 100	–	–	–	> 100	–	> 100	> 100	–	–
NS(=O)(=O)c1ccc(C2C3=C(CCCC3=O)OC3=C2C(=O)c2ccccc2C3=O)cc1 (configuration not stated)	1.7	3.51	0.319	1.03	0.604	2.38	0.699	2.53	1.78	3.17	0.318	0.938	0.244	0.724	0.293	0.848	–	–	–
COc1cc([C@@H]2c3cc4c(cc3C(Br)[C@H]3COC(=O)[C@H]23)OCO4)cc(OC)c1OC (some centres not stated)	0.552	> 100	0.549	> 100	0.499	> 100	0.533	> 100	–	> 100	0.296	–	0.213	0.559	0.431	> 100	–	–	–
CN(C)c1ccc(C(=O)c2ccc(N(C)C)c(N)c2)cc1N	15.8	> 100	6.08	> 100	4.3	> 100	8.87	> 100	14.5	98.6	5.81	> 77.6	1.86	8	2.76	> 57.6	–	–	–
NC1CCCCC1N.O=C([O-])P(=O)([O-])[O-].[Na+].[Pt+4] (configuration not stated)	> 100	> 100	> 100	> 100	–	–	> 100	> 100	> 100	> 100	–	–	> 100	> 100	29.1	> 100	–	> 100	> 100
C[C@]12CC/C(=N\N)C[C@@H]1CC[C@@H]1[C@@H]2CC[C@]2(C)/C(=N/N)CC[C@@H]12	> 100	> 100	> 100	> 100	> 100	> 100	> 100	> 100	> 100	> 100	> 100	> 100	> 100	> 100	> 100	> 100	–	–	–
O=C(CC1(O)C(=O)Nc2ccc(Br)cc21)c1ccc(Cl)cc1 (configuration not stated)	–	> 100	–	> 100	–	> 100	–	> 100	–	> 100	–	–	–	> 100	–	> 100	–	–	> 100
COc1cccc2c1C1(O)C2CCCC12OCCCO2 (configuration not stated)	–	> 100	–	> 100	–	> 100	–	–	–	> 100	–	–	–	> 100	–	> 100	> 100	–	> 100
C[C@@H]1COCCN1c1nc(-c2cnc(N)cc2C(F)F)nc(N2[C@H](C)COC[C@@H]2C)n1	0.392	16.5	0.302	15.9	0.382	7.62	0.21	5.77	0.209	4.51	0.412	20.8	0.293	12.7	0.295	9.15	–	–	–

From PubChem BioAssay (NCI)
